Results reported in PMC6255327, “Design of Antimicrobially Active Small Amphiphilic Peptide Dendrimers” (Molecules, 2009).
In brackets after ≈: the same amount, converted by molar mass. Structures can show the parent of a compound that is named as a salt. Where two headings read alike, the source gives them in different places.

Experiments:
[1] = tested on: E.coli ATCC 25922; type: cell-based, Escherichia coli
Procedure: (§1) Bacteria. Staphylococcus aureus ATCC 25923, Pseudomonas aeruginosa ATCC 27853, Escherichia coli ATCC 25922 and Staphylococcus aureus ATCC 43300 were cultivated on tryptone - soy agar (TSA; Oxoid). Klebsiella pneumoniaeATCC 13882, Bordetella bronchiseptica ATCC 4617, Acinetobacter baumannii ATCC 19606 were cultivated onto nutrient agar (Difco). Escherichia coli ATCC BAA-198 was cultivated on TSA with ceftazidime (10 µg/mL or 15.7 μM; Sigma). All strains were incubated during 24 hrs at 37 °C.
(§2) Medium. Mueller – Hinton Broth (Oxoid) was supplemented with cations: 12.5 mg Mg ^++/L and25 mg Ca^++/L. The pH of the medium after sterilization is between 7.2 and 7.4 [cation–adjusted Mueller – Hinton Broth” (CAMHB)].
(§3) Reference method. Broth microdilution susceptibility test was performed as described in […] reference method M7-A7 (2). A series of the twofold dendrimers dilutions in DMSO and twofold polymyxin B and penicillin G dilutions in CAMHB were diluted […] with CAMHB. Aliquots (95 µL) were dispensed into microdilution sterile plates (Mar-Four). Then, bacteria inoculum (5 µL) containing 5 × 10^4 CFU/mL were added. The final concentration of dendrimers ranged from 128 to 2 µg/mL [or 105 to 1.6 μM for an average molecular mass for 7 series (1213) and 61 to 0.9 μM for an average molecular mass for 10 series(2,103)], polymyxin B and penicillin G from 8 – 0.15 µg /mL (or 5.8 to 0.1 μM and 21.5 to 0.4 μM, respectively for polymyxin B and penicillin G), all in twofold dilution steps. The plates were incubated at 35 °C and read after 18 or 24 hours depending on bacterial strain. MICs (Minimal Inhibitory Concentration) was defined as the lowest drug concentration that reduced growth by 100%.

[2] = tested on: S. aureus ATCC 25923; assay: microbe, parasite or virus in culture; type: cell-based, Staphylococcus aureus; conditions: read-out: Minimal inhibitory concentration (MIC)
Procedure: as §1, §2, §3

[3] = tested on: S. aureus ATCC 43300; type: cell-based, Staphylococcus aureus; conditions: ATCC 43300, 24 h
Procedure: as §1, §2, §3

[4] = tested on: E. coli ATCC BAA-198; type: cell-based, Escherichia coli; conditions: ATCC BAA-198, 24 h
Procedure: as §1, §2, §3

[5] = tested on: A. baumani ATCC 19606; type: cell-based, Acinetobacter baumannii; conditions: ATCC 19606, 24 h
Procedure: as §1, §2, §3

[6] = tested on: P. aeruginosa ATCC 27853; type: cell-based, Pseudomonas aeruginosa; conditions: ATCC 27853, 24 h
Procedure: as §1, §2, §3

[7] = tested on: C. parapsilosis ATCC 22019; type: cell-based, Candida parapsilosis; conditions: ATCC 22019, 48 h, pH 7
Procedure: (§4) Yeasts: Candida albicans ATCC 90028, Candida parapsilosis ATCC 22019 and Candida krusei ATCC 6258 were cultivated onto Sabouraud dextrose agar (Difco) during 24 hrs at 35 °C.
(§5) Medium: RPMI – 1640 (Sigma) supplemented with 0.2% (wt/vol) glucose, 0.3 g/L L-glutamine, 0.0053 g/L phenol red, buffered with morpholinopropanesulfonic acid (MOPS; Sigma) at a final concentration of 0.165 M and adjusted to pH 7.0 was prepared.
(§6) Reference Method: The broth microdilution susceptibility test was performed as described in Clinical and Laboratory Standards Institute (CLSI) reference method M27 – A2 (1). A series of the twofold dendrimers and amphotericin B dilutions in DMSO were diluted 1:49 with RPMI.

[8] = tested on: K. pneumoniae ATCC 13882; type: cell-based, Klebsiella pneumoniae; conditions: ATCC 13882, 24 h
Procedure: as §1, §2, §3

[9] = tested on: C. krusei ATCC 6258; assay: microbe, parasite or virus in culture; type: cell-based, Candida krusei; conditions: read-out: Minimal inhibitory concentration (MIC)
Procedure: as §4, §5, §6

[10] = tested on: C. albicans ATCC 90028; type: cell-based, Candida albicans; conditions: ATCC 90028, 48 h, pH 7
Procedure: as §4, §5, §6

[11] = tested on: B. bronchiseptica ATCC 4617; type: cell-based, Bordetella bronchiseptica; conditions: ATCC 4617, 24 h
Procedure: as §1, §2, §3

[12] = E. coli ATCC 25922, broth microdilution CLSI M7-A7, CAMHB, 35 °C, read after 18 or 24 h, 100% growth reduction
[13] = S. aureus ATCC 25923, broth microdilution CLSI M7-A7, CAMHB pH 7.2-7.4, 35 °C, read after 18 or 24 h, MIC = lowest concentration that reduced growth by 100%

| Minimal inhibitory concentration (MIC) [1, 12] [µM] | MIC [2, 13] [µM] | Minimal inhibitory concentration (MIC) [3] [µM] | Minimal inhibitory concentration (MIC) [4] [µM] | Minimal inhibitory concentration (MIC) ([1]; ATCC 25922, 24 h) [µM] | Minimal inhibitory concentration (MIC) [5] [µM] | MIC ([2]; ATCC 25923, 24 h, pH 7.2) [µM] | Minimal inhibitory concentration (MIC) [6] [µM] | Minimal inhibitory concentration (MIC) [7] [µM] | Minimal inhibitory concentration (MIC) [8] [µM] | MIC ([9]; ATCC 6258, 48 h, pH 7) [µM] | Minimal inhibitory concentration (MIC) [10] [µM] | Minimal inhibitory concentration (MIC) [11] [µM] | MIC ([9]; Pichia kudriavzevii, ATCC6258, C. krusei ATCC 6258, broth microdilution CLSI M27-A2, RPMI-1640 with MOPS pH 7.0, 35 °C, read after 24 and 48 h, 100% growth reduction) [µM] | MIC ([2]; Staphylococcus aureus, ATCC25923, S. aureus ATCC 25923, broth microdilution CLSI M7-A7, CAMHB pH 7.2-7.4, 35 °C, read after 18 or 24 h, MIC = lowest concentration that reduced growth by 100%) [µM] | Compound |
| --- | --- | --- | --- | --- | --- | --- | --- | --- | --- | --- | --- | --- | --- | --- | --- |
| >226 | 113 (≈ 39.2 µg/mL) |  |  |  |  |  |  |  |  |  |  |  |  |  | NCCCN(CCCN)CCC[C@@H](CO)N(CCCN)CCCN [Compound 5c, N,N’,N,N’-tetrakis(3-aminopropyl)-L-α,δ-diaminopentanol] |
|  |  | 13.6 | 13.6 | 27.3 | 27.3 | 27.2 | 54 | 54 | 54 | 27.3 | 54 | 6.8 |  |  | NCCCC[C@H](NC(=O)OCc1ccccc1Cl)C(=O)N[C@@H](Cc1ccccc1)C(=O)NCCCN(CCCNC(=O)[C@H](Cc1ccccc1)NC(=O)[C@H](CCCCN)NC(=O)OCc1ccccc1Cl)CCC[C@@H](CO)N(CCCNC(=O)[C@H](Cc1ccccc1)NC(=O)[C@H](CCCCN)NC(=O)OCc1ccccc1Cl)CCCNC(=O)[C@H](Cc1ccccc1)NC(=O)[C@H](CCCCN)NC(=O)OCc1ccccc1Cl [Compound 10c, N,N',N,N’-tetrakis[(N^α-2-chlorobenzyloxycarbonyl)-L-lysil-L-phenylalanyl-3-aminopropyl]-L-α,δ-diaminopentanol hexahydrochloride] |
|  |  |  |  |  |  |  |  |  |  |  |  |  | 1.1 (≈ 1.02 µg/mL) |  | C[C@@H]1[C@H](O)[C@@H](C)/C=C/C=C/C=C/C=C/C=C/C=C/C=C/[C@H](O[C@@H]2O[C@H](C)[C@@H](O)[C@H](N)[C@@H]2O)C[C@@H]2O[C@](O)(C[C@@H](O)C[C@@H](O)[C@H](O)CC[C@@H](O)C[C@@H](O)CC(=O)O[C@H]1C)C[C@H](O)[C@H]2C(=O)O [amphotericin B, reference compound] |
|  |  | 11.8 | >88 | 11.8 | >89 | 2.8 | 24.3 | 88 | >89 | 44 | >88 | 11 |  |  | NCCCC[C@H](NC(=O)OCc1ccccc1Cl)C(=O)NCCCN[C@@H](CN(CCCNC(=O)[C@H](CCCCN)NC(=O)OCc1ccccc1Cl)CCCNC(=O)[C@H](CCCCN)NC(=O)OCc1ccccc1Cl)C(=O)NCc1ccccc1 [Compound 7e, N,N,N’-tris[(N^α-2-chlorobenzyloxycarbonyl)-L-lysil-3-aminopropyl]-L-diaminoalanine benzylamide pentahydrochloride] |
| >221 | 221 (≈ 79.7 µg/mL) |  |  |  |  |  |  |  |  |  |  |  |  |  | NCCCN(CCCN)CCCC[C@@H](CO)N(CCCN)CCCN [Compound 5d, N,N’,N,N’-tetrakis(3-aminopropyl)-L-α,ε-diaminohexanol] |
|  |  |  |  |  |  |  |  |  |  |  |  |  |  | 6.6 (≈ 2.21 µg/mL) | CC1(C)S[C@@H]2[C@H](NC(=O)Cc3ccccc3)C(=O)N2[C@H]1C(=O)O [Penicillin G, reference compound] |
|  |  | 3.4 | 6.9 | 7.3 | 13.8 | 1.7 | 30.2 | 6.8 | >55 | 6.8 | 6.8 | 3.4 |  |  | NCCCC[C@H](NC(=O)OCc1ccccc1Cl)C(=O)N[C@@H](Cc1ccccc1)C(=O)NCCCN(CCCNC(=O)[C@H](Cc1ccccc1)NC(=O)[C@H](CCCCN)NC(=O)OCc1ccccc1Cl)C[C@@H](CO)N(CCCNC(=O)[C@H](Cc1ccccc1)NC(=O)[C@H](CCCCN)NC(=O)OCc1ccccc1Cl)CCCNC(=O)[C@H](Cc1ccccc1)NC(=O)[C@H](CCCCN)NC(=O)OCc1ccccc1Cl [Compound 10a, N,N',N,N’-tetrakis[(N^α-2-chlorobenzyloxycarbonyl)-L-lysil-L-phenylalanyl-3-aminopropyl]-L-α,δ-diaminopropanol hexahydrochloride] |
